What was measured:
[1] = molecular target: tissue factor/factor VIIa (Homo sapiens, UniProt P08709); test: Tissue Factor/Factor VIIa antagonist assay (chromogenic, Ki); type: biochemical; details: 10 nM VIIa, 30 nM TF, Chromozym-tPA 1.33 mM; read-out: binding affinity to serine proteases: VIIa
Procedure: Tissue Factor/Factor VIIa Antagonist Assay
This procedure is used to determine the constant of inhibition (Ki) for a sample compound of the invention.
Procedure • 1. Prepare a solution of 2 μg/mL (90 nM) tissue factor and 1.5 μg/mL (30 nM) factor VIIa in assay buffer with CaCl2. • 2. Incubate for 15 minutes at room temperature. • 3. Add 50 μL sample to each well. • 4. Add 50 μL tissue factor/factor VIIa solution to each well. • 5. Incubate for 15 minutes at room temperature with gentle agitation. • 6. Add 50 μL substrate to each well. • 7. Agitate plate for 20-25 sec. • 8. Monitor absorbance at 405 nm every 10 see for a total of 5 minutes at room temperature. • 9. Calculate Vmax over 10 points.

human Factor Xa = molecular target: T1, human Factor Xa (Homo sapiens, UniProt P00742); test: Factor Xa assay (chromogenic, Ki); type: biochemical; details: 3.3 nM Xa, S-2222 0.5 mM; read-out: binding affinity to serine proteases: Xa
T1 construct: This complex converts factor X to Xa
Procedure: Factor Xa, Thrombin, and Plasma Kallikrein Assays
These procedures are used to determine the constant of inhibition (Ki) for a sample compound of the invention.
Procedure • 1. Add 50 μL sample to each well. • 2. Add 50 μL appropriately diluted coagulation factor to each well. • 3. Incubate for 5 minutes at room temperature with gentle agitation. • 4. Add 50 μL appropriately diluted substrate to each well. • 5. Agitate plate for 20-25 sec. • 6. Monitor absorbance at 405 nm every 10 sec for a total of 5 minutes at room temperature. • 7. Calculate Vmax over 10 points.

T1 sequence (P00742 235-488 limits assumed): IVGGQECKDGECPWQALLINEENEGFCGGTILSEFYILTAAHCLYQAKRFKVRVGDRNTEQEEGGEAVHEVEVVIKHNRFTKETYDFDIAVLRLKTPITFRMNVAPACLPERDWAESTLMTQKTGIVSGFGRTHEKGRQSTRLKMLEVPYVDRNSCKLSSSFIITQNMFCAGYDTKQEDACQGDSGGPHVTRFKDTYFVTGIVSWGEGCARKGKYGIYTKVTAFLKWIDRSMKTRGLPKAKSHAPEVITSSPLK
T1 sequence (P00742 41-179 limits assumed): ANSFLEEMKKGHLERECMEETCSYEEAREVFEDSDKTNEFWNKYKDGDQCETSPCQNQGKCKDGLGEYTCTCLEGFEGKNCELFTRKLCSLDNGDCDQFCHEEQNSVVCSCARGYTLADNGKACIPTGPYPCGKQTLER
Sequence of tissue factor/factor VIIa (P08709 213-466 limits assumed): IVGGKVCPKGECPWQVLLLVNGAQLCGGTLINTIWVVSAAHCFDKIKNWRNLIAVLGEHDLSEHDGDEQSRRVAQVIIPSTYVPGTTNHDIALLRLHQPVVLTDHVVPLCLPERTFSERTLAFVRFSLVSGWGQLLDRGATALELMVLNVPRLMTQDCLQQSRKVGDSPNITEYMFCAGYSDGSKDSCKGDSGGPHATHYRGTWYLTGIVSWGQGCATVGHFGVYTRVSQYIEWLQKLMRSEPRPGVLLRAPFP
Sequence of tissue factor/factor VIIa (P08709 61-212 limits assumed): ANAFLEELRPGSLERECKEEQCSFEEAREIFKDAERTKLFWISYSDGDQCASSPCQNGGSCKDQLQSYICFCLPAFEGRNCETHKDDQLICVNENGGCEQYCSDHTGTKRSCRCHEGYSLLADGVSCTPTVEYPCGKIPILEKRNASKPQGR
Sequence of tissue factor/factor VIIa (P13726 33-251 partner limits assumed): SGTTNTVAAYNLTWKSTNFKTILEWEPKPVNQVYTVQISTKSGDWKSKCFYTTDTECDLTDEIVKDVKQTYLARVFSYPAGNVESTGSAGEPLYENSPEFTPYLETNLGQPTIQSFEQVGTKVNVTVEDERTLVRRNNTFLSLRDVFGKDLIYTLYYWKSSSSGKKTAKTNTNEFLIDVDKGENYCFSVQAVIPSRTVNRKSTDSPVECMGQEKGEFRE

| Structure (SMILES) | Ki [1] | Ki (human Factor Xa) |
| --- | --- | --- |
| N=C(N)c1cccc(O[C@H]2CN[C@H](C(=O)NCC(=O)O)C2)c1 [compound 77] | > 390 µM | – |
| COc1ccc(NC(=O)[C@@H]2C[C@@H](Oc3cccc(C(=N)N)c3)CN2)cc1 [compound 64] | 273 µM | 70.1 µM |
| N=C(N)c1cccc(O[C@@H]2C[C@@H](C(=O)O)N(Cc3ccccc3)C2)c1 [compound 70] | 156 µM | 105 µM |
| N#Cc1ccc(NC(=O)[C@@H]2C[C@@H](Oc3cccc(C(=N)N)c3)CN2)cc1 [compound 34] | 156 µM | 16.8 µM |
| N=C(N)c1cccc(O[C@H]2CN[C@H](C(=O)N3CCNCC3)C2)c1 [compound 63] | ≥ 390 µM | 70 µM |
| N=C(N)c1cccc(O[C@H]2CN[C@H](C(=O)N3CCCCC3CCO)C2)c1 (stereo partly drawn) [compound 62] | > 390 µM | 64.6 µM |
| N=C(N)c1cccc(O[C@H]2CN[C@H](C(=O)NCc3cccnc3)C2)c1 [compound 58] | ≥ 390 µM | 50.7 µM |
| N=C(N)c1cccc(O[C@H]2CN[C@H](C(=O)NCCc3ccccc3)C2)c1 [compound 53] | 133 µM | 37.1 µM |
| C=CCOC(=O)[C@@H]1C[C@@H](Oc2cccc(C(=N)N)c2)CN1S(C)(=O)=O [compound 78] | > 195 µM | – |
| CC(C)NC(=O)[C@@H]1C[C@@H](Oc2cccc(C(=N)N)c2)CN1 [compound 59] | ≥ 390 µM | 59.8 µM |
| C[C@@H](NC(=O)[C@@H]1C[C@@H](Oc2cccc(C(=N)N)c2)CN1)c1ccccc1 [compound 26] | 142 µM | – |
| Cc1ccc(CNC(=O)[C@@H]2C[C@@H](Oc3cccc(C(=N)N)c3)CN2)cc1 [compound 9] | ≥ 390 µM | 5.13 µM |
| C=CCNC(=O)[C@@H]1C[C@@H](Oc2cccc(C(=N)N)c2)CN1 [compound 31] | ≥ 390 µM | 15.2 µM |
| N=C(N)c1cccc(O[C@H]2CN[C@H](C(=O)N3CCCCC3)C2)c1 [compound 35] | 94 µM | 19.7 µM |
| N=C(N)c1cccc(O[C@H]2CN[C@H](C(=O)N3CCCC(C(=O)O)C3)C2)c1 (stereo partly drawn) [compound 67] | ≥ 390 µM | 87.7 µM |
| COc1ccc(CNC(=O)[C@@H]2C[C@@H](Oc3cccc(C(=N)N)c3)CN2S(=O)(=O)c2ccccc2)cc1 [compound 50] | > 195 µM | 34.1 µM |
| CS(=O)(=O)N1C[C@H](Oc2cccc(C(=N)N)c2)C[C@H]1C(=O)O [compound 81] | > 195 µM | > 175 µM |
| CC(C)CCNC(=O)[C@@H]1C[C@@H](Oc2cccc(C(=N)N)c2)CN1 [compound 54] | ≥ 390 µM | 38 µM |
| N=C(N)c1cccc(O[C@H]2CN[C@H](C(N)=O)C2)c1 [compound 66] | 78 µM | 70.1 µM |
| CC(C)[C@@H](NC(=O)[C@@H]1C[C@@H](Oc2cccc(C(=N)N)c2)CN1)C(=O)O [compound 72] | ≥ 390 µM | 132 µM |
| N=C(N)c1cccc(O[C@H]2CN[C@H](C(=O)NCc3cccc(Cl)c3)C2)c1 [compound 19] | 312 µM | 9 µM |

| Structure (SMILES) | Ki [1] | Ki (human Factor Xa) |
| --- | --- | --- |
| N=C(N)c1cccc(O[C@H]2CN[C@H](C(=O)NCc3ccc(N)cc3)C2)c1 [compound 30] | 312 µM | 15.2 µM |
| C[C@H](NC(=O)[C@@H]1C[C@@H](Oc2cccc(C(=N)N)c2)CN1)c1ccccc1 [compound 46] | 156 µM | 27 µM |
| N=C(N)c1cccc(O[C@H]2CN[C@H](C(=O)Nc3cccc(C(F)(F)F)c3)C2)c1 [compound 45] | 150 µM | 26.3 µM |
| N=C(N)c1cccc(O[C@H]2CN[C@H](C(=O)NCc3ccncc3)C2)c1 [compound 71] | ≥ 390 µM | 105 µM |
| N=C(N)c1cccc(O[C@H]2CN[C@H](C(=O)Nc3ccc4ccccc4c3)C2)c1 [compound 29] | 117 µM | 14.2 µM |
| N=C(N)c1cccc(O[C@@H]2C[C@@H](C(=O)O)N(S(=O)(=O)c3ccccc3)C2)c1 [compound 82] | > 195 µM | > 175 µM |
| C[C@H](NC(=O)[C@@H]1C[C@@H](Oc2cccc(C(=N)N)c2)CN1)C(=O)O [compound 75] | ≥ 390 µM | 140 µM |
| CCCNC(=O)[C@@H]1C[C@@H](Oc2cccc(C(=N)N)c2)CN1 [compound 49] | ≥ 390 µM | 33.8 µM |
| Cc1ccccc1CNC(=O)[C@@H]1C[C@@H](Oc2cccc(C(=N)N)c2)CN1 [compound 39] | ≥ 390 µM | 22.8 µM |
| N=C(N)c1cccc(O[C@H]2CN[C@H](C(=O)NCCc3ccccc3)C2)c1 [compound 41] | 187 µM | 24.3 µM |
| Cc1ccccc1NC(=O)[C@@H]1C[C@@H](Oc2cccc(C(=N)N)c2)CN1 [compound 44] | 117 µM | 25.9 µM |
| N#Cc1ccccc1NC(=O)[C@@H]1C[C@@H](Oc2cccc(C(=N)N)c2)CN1 [compound 42] | 89 µM | 24.4 µM |
| N=C(N)c1cccc(O[C@H]2CN[C@H](C(=O)NC3CCc4ccccc43)C2)c1 (stereo partly drawn) [compound 25] | 156 µM | 13.3 µM |
| N=C(N)c1cccc(O[C@H]2CN[C@H](C(=O)NCc3ccccn3)C2)c1 [compound 47] | ≥ 390 µM | 31.4 µM |
| COc1ccc(CNC(=O)[C@@H]2C[C@@H](Oc3cccc(C(=N)N)c3)CN2S(C)(=O)=O)cc1 [compound 48] | > 195 µM | 33.6 µM |
| N=C(N)c1cccc(O[C@H]2CN[C@H](C(=O)Nc3ccc(C(F)(F)F)cc3)C2)c1 [compound 24] | 312 µM | 12.9 µM |
| N=C(N)c1cccc(O[C@H]2CN[C@H](C(=O)Nc3cccc4ccccc34)C2)c1 [compound 33] | 30.5 µM | 15.5 µM |
| COc1ccc(CNC(=O)[C@@H]2C[C@@H](Oc3cccc(C(=N)N)c3)CN2C(C)=O)cc1 [compound 23] | > 195 µM | 12 µM |
| N=C(N)c1ccc(NC(=O)[C@@H]2C[C@@H](Oc3cccc(C(=N)N)c3)CN2)cc1 [compound 2] | 64 µM | 1.15 µM |
| CN(C(=O)[C@@H]1C[C@@H](Oc2cccc(C(=N)N)c2)CN1)c1ccccc1 [compound 40] | 156 µM | 23 µM |
| Cc1cccc(CNC(=O)[C@@H]2C[C@@H](Oc3cccc(C(=N)N)c3)CN2)c1 [compound 13] | ≥ 390 µM | 6.12 µM |

| Structure (SMILES) | Ki [1] | Ki (human Factor Xa) |
| --- | --- | --- |
| N=C(N)c1cccc(O[C@H]2CN[C@H](C(=O)NCc3ccc4ccccc4c3)C2)c1 [compound 20] | 234 µM | 9.07 µM |
| N=C(N)c1cccc(O[C@H]2CN[C@H](C(=O)N3CCC(O)CC3)C2)c1 [compound 57] | 312 µM | 49.3 µM |
| COc1ccc(CNC(=O)[C@@H]2C[C@@H](Oc3cccc(C(=N)N)c3)CN2)cc1 [compound 8] | ≥ 390 µM | 3.32 µM |
| N=C(N)c1cccc(O[C@H]2CN[C@H](C(=O)N[C@@H](Cc3ccccc3)C(=O)O)C2)c1 [compound 55] | 273 µM | 44.9 µM |
| N=C(N)c1cccc(O[C@H]2CN[C@H](C(=O)N3CCCC3)C2)c1 [compound 38] | 129 µM | 21.7 µM |
| N=C(N)c1cccc(O[C@H]2CN[C@H](C(=O)Nc3ccccc3C(F)(F)F)C2)c1 [compound 43] | 156 µM | 24.5 µM |
| N=C(N)c1cccc(O[C@H]2CN[C@H](C(=O)Nc3ccc(-c4ccccc4)cc3)C2)c1 [compound 28] | ≥ 390 µM | 14.1 µM |
| N=C(N)c1cccc(O[C@H]2CN[C@H](C(=O)N3CCc4ccccc4C3)C2)c1 [compound 10] | 98.5 µM | 5.35 µM |
| COc1ccc(CNC(=O)[C@@H]2C[C@@H](Oc3cccc(C(=N)N)c3)CN2C(=O)c2ccccc2)cc1 [compound 56] | > 195 µM | 47.3 µM |
| N=C(N)c1cccc(O[C@H]2CN[C@H](C(=O)Nc3ccc(F)cc3)C2)c1 [compound 65] | 30.7 µM | 70.1 µM |
| N=C(N)c1cccc(O[C@H]2CN[C@H](C(=O)NC3CCCCC3)C2)c1 [compound 51] | 234 µM | – |
| N=C(N)c1cccc(O[C@H]2CN[C@H](C(=O)N3CCCCC3CO)C2)c1 (stereo partly drawn) [compound 68] | ≥ 390 µM | 89.6 µM |
| C=CCOC(=O)[C@@H]1C[C@@H](Oc2cccc(C(=N)N)c2)CN1S(=O)(=O)c1ccccc1 [compound 74] | > 195 µM | 140 µM |
| N=C(N)c1cccc(O[C@H]2CN[C@H](C(=O)N[C@@H](CCC(=O)O)C(=O)O)C2)c1 [compound 73] | ≥ 390 µM | 140 µM |
| CN1CCN(C(=O)[C@@H]2C[C@@H](Oc3cccc(C(=N)N)c3)CN2)CC1 [compound 18] | 273 µM | 8.87 µM |
| N=C(N)c1cccc(O[C@H]2CN[C@H](C(=O)N3CCCC(CO)C3)C2)c1 (stereo partly drawn) [compound 69] | 117 µM | 90.2 µM |
| N=C(N)c1cccc(O[C@H]2CN[C@H](C(=O)NCCC3CNc4ccccc43)C2)c1 (stereo partly drawn) [compound 12] | 156 µM | 6.02 µM |
| N=C(N)c1cccc(O[C@H]2CN[C@H](C(=O)NCc3ccccc3)C2)c1 [compound 37] | 312 µM | 21.7 µM |
| N=C(N)c1cccc(O[C@H]2CN[C@H](C(=O)N3CCCC(C(N)=O)C3)C2)c1 (stereo partly drawn) [compound 61] | – | 62 µM |
